Source: patent US9970037B2, “Methods and materials for making simvastatin and related compounds” (The Regents of the University of California, priority 2006, dated 2018)

How the values were obtained:
E. coli BL21(DE3)/pAW31 = test: Whole cell biocatalysis with E. coli overexpressing LovD; type: cell-based, Escherichia coli; details: 0.5 mM lovastatin (sodium salt form)
Experimental: The BL21(DE3)/pAW31 overexpression strain was grown in a shake flask (200 mL) to an OD600 of 1.0, at which time 1 mM IPTG, 0.8 mM monacolin J and 4 mM of either benzoyl-SNAC or benzoyl-SMTG were added to the culture. Expression of LovD and bioconversion was performed at 18° C. The culture was extracted and analyzed for the formation of 8-benzoyl-monacolin J. When supplemented with benzoyl-SNAC, 84% conversion of monacolin J was detected within 20 hours post-induction. The product was lactonized and purified by a single silica-gel chromatography step. The NMR spectra confirmed the regioselective benzoylation of the C8 hydroxyl group as the diagnostic H8 multiplet is shifted downfield to δ 5.61.
Fermentation conditions: 500 mL culture with LB media with 30 mg/L kanamycin. At OD600 of 1.0, cells were concentrated to a final OD600 of 5.0 and induced with 1 mM IPTG. Substrates monacolin J and α-dimethylbutyryl-SNAC were added to a final concentration of 1 mM and 4 mM. At different time points, culture samples were collected, centrifuged, filtered and injected on to HPLC (20 μL). Extraction conditions: When maximum conversion was reached, the broth was acidified to pH of 2.0, extracted with ethyl acetate, dried and redissolved in toluene.
Whole-cell catalytic synthesis of simvastatin acid from MJ acid and DMB-S-MMP were performed as described (see, e.g., Xie et al., (2007) Appl Environ Microbiol 73: 2054-2060). The E. coli BL21(DE3)/pAW31 and YT2/pAW31 strains were cultured side-by-side for comparison. A single colony of the freshly transformed strains was used to inoculate a 5 mL LB culture supplemented with 35 mg/L kanamycin and grown overnight at 37° C. The next morning, 100 μL of the overnight culture was inoculated into 50 mL cultures containing LB broth, F1 minimal medium and F1 medium supplemented with 0.15 mg/L biotin. Growth rates were monitored by periodically measuring the OD600 reading. When OD600 reached ˜0.5, 100 μM IPTG was added to the culture and expression of LovD was performed at 20° C. for 16 hours. To mimic high density fermentation conditions, the cells were concentrated 10-fold before addition of substrates. Typically, a 14 mL aliquot of the culture was transferred to a 15 mL centrifuge tube and the cells were collected by centrifugation (4° C., 4000 g, 10 minutes). The cell pellet was gently resuspended in 1316 μl of the supernatant, followed by addition of 84 μl of a MJ acid stock solution (250 mM in H2O) (final concentration 15 mM). The concentrated culture was then separated into seven 200 μL samples and 1.2 μL of pure DMB-S-MMP was added to each sample (final concentration ˜25 mM). The culture was then shaken at 300 rpm at room temperature. At each time point, a total extraction was performed by adding 10 μL 20% SDS to lyse the cells, followed by liquid-liquid extraction with 500 μL EA/1% AcOH. The organic phase was removed, evaporated, and redissolved in 50 μL ACN for HPLC analysis. For the BL21(DE3) sample, an additional 1.2 μL aliquot of DMB-S-MMP was added after 12 hours to replenish the hydrolyzed substrates.
The E. coli BL21(DE3)/pAW31 strain was grown in LB medium at 37° C. to an OD600 of 0.5, at which time 100 μM IPTG was added to the culture and expression was performed at RT for 16 hours. A 10 ml culture was transferred to a 15 mL centrifuge tube. The cells were collected by centrifugation (4000 g, 10 minutes). The cell pellet was resuspended in 957 μl of the supernatant. The pH was adjusted to pH 7.9 with 1.0 N NaOH, followed by addition of 33 μl 450 mM MJ (final concentration 15 mM) and 6 μl pure DMB-S-MMP (final concentration ˜25 mM). The culture was then shaken at 300 rpm at room temperature. At each time point, a 4 μL aliquot was removed from the reaction mixture, quenched in 300 μL ethyl acetate containing 1% TFA.

LovD = molecular target: T1, LovD (Aspergillus terreus, UniProt Q9Y7D1); parameters: 6xHis (N); made in house; host or cells: E. coli BL21(DE3)/pAW31 (pET28a); details: Xie et al., 2006; cited from earlier work
T1 sequence (Q9Y7D1 1-413): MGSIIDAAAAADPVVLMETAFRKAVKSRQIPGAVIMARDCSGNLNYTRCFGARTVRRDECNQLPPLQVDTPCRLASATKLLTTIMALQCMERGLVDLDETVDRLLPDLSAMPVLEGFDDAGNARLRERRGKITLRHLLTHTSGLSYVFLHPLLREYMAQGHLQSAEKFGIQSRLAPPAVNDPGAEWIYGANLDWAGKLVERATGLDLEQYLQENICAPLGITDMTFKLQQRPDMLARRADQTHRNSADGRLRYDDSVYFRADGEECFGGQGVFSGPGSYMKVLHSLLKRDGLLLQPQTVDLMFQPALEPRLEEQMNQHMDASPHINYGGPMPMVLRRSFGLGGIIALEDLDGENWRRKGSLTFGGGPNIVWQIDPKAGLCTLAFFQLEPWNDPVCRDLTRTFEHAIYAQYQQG

CC[C@H](C)C(=O)O[C@H]1C[C@@H](C)C=C2C=C[C@H](C)[C@H](CC[C@@H]3C[C@@H](O)CC(=O)O3)[C@H]21 [lovastatin, reference compound]
conversion rate of whole cell hydrolysis (E. coli BL21(DE3)/pAW31): ~0.01 mM per hour | hydrolysis to monacolin J by whole cells (E. coli BL21(DE3)/pAW31; 48 hours): 91% | kcat of LovD hydrolysis of lovastatin into monacolin J in vitro (previously reported) (LovD): 0.0035 s⁻¹
